Assay results: paper PMC10724293, “New ruthenium-xanthoxylin complex eliminates colorectal cancer stem cells by targeting the heat shock protein 90 chaperone” (Cell Death & Disease, 2023)

Key:
HCT116 cells [1] = test: Functional cell death assay with inhibitors/activator; type: cell-based, human; details: then 10 µM RXC for 48 h; for effect of autophagy inhibitor on RXC-induced cell death: pretreated with 50 µM CQ or 5 mM 3-MA, annexin V-FITC/PI
Description: (§1) For apoptosis detection or functional assays, cell viability was quantified using annexin V-FITC/PI (FITC Annexin V Apoptosis Detection Kit I, BD Biosciences, San Jose, CA, USA) or YO-PRO-1/PI (Sigma-Aldrich Co.). The following inhibitors were used: chloroquine (autophagy inhibitor, Ipca Laboratories, Mumbai, MH, India); 3-methyladenine (autophagy inhibitor, Sigma-Aldrich Co.); and lithium chloride (Wnt activator, Sigma-Aldrich Co.).

WT SV40 MEF = test: Alamar blue survival curves; type: cell-based; details: Mus musculus, 72 h
Protocol: (§2) The Alamar blue assay was used to determine cell viability as previously described. Cells were seeded into 96-well plates at a density of 7 × 10^3 cells per well for adherent cells or 3 × 10^4 cells per well for suspended cells. The drug was added to each well after 24 h of incubation for adherent cells or immediately for suspended cells and incubated for an additional 72 h. […] Each well received 100 µM resazurin (Sigma-Aldrich Co. St. Louis, MO, United States) four (for cell lines) or 24 (for primary culture) h before the end of the incubation. A SpectraMax 190 Microplate Reader (Molecular Devices, Sunnyvale, CA, USA) was used to measure absorbance at 570 and 600 nm.

BAD KO SV40 MEF = test: Alamar blue survival curves and cell death; type: cell-based, mouse; details: Mus musculus; BAD KO SV40 MEF; Alamar blue, 72 h
Protocol: as §2, §1

HCT116 cells [2] = test: Cell cycle distribution and internucleosomal DNA fragmentation by flow cytometry; type: cell-based, human; details: 1 µM, positive control
Protocol: For quantification of internucleosomal DNA fragmentation and cell cycle distribution, the cells were stained with PI using a solution containing 0.1% Triton X-100, 2 µg/ml PI, 0.1% sodium citrate, and 100 µg/ml RNAse (all from Sigma-Aldrich) and incubated in the dark for 15 min at room temperature. Finally, cell fluorescence was measured using flow cytometry.
For all flow cytometry analyses, cell fluorescence was measured with a BD LSRFortessa cytometer and analyzed by BD FACSDiva Software (BD Biosciences) and FlowJo Software 10 (FlowJo LLC; Ashland, OR, USA). At least 10,000 events were evaluated per sample for intracellular staining, and at least 30,000 events were acquired per sample for cell surface protein staining. FSC-A versus FCS-H and SCC-A versus SCC-H were used to remove the doublets. The analysis excluded cellular debris.

[3] = tested on: CR01 (colorectal carcinoma); test: Alamar blue viability of primary cancer cells; type: cell-based, human; details: primary CRC (first listed); 25 μg/ml (RXC 31.3 μM, DOX 46 μM); 96 h
Protocol: as §2
(§3) CR03 (metastatic cholangiocarcinoma) CR04 (malignant papillary mesothelioma) […]
(§4) Figure S1. […] Cells were exposed to 25 […]
(§5) measured after 96 h using the Alamar blue assay. The data are presented as the […]
(§6) mean ± S.E.M. of four replicates. * P < 0.05 compared to CTL by one-way ANOVA […]
(§7) followed by Dunnett's multiple comparisons test. […]

[4] = tested on: CR03 (metastatic cholangiocarcinoma); test: Alamar blue viability of primary cancer cells; type: cell-based, human; details: 25 μg/ml (RXC 31.3 μM, DOX 46 μM), 96 h
Protocol: as §2, §3, §4, §5, §6, §7

[5] = tested on: CR04 (malignant papillary mesothelioma); test: Alamar blue viability of primary cancer cells; type: cell-based, human; details: primary papilliferous malignant mesothelioma; 25 μg/ml (RXC 31.3 μM, DOX 46 μM); 96 h
Protocol: as §2, §3, §4, §5, §6, §7

HCT116 cells [6] = test: CRC tumor growth xenograft model; type: in vivo, C. B-17 SCID mice; details: RXC 2 mg/kg, DOX 0.8 mg/kg, i.p. once a day for 2 weeks
Protocol: HCT116 cells (10^7 cells/500 μl) were inoculated subcutaneously into the left front armpit of mice, as previously reported. The animals were then treated intraperitoneally (200 μl/animal) once a day for 2 weeks. […] The animals were euthanized with an anesthetic overdose (thiopental, 100 mg/kg) 1 day after treatment ended, and tumors were excised, weighed, and processed for histological analysis. The inhibition ratio (percent) was calculated as follows: inhibition ratio (percent) = [(A − B)/A] × 100, where A is the average tumor weight of the negative control and B is the treated group.

MRC-5 = test: Alamar blue cytotoxicity assay, noncancerous cells; type: cell-based, human; details: Homo sapiens, MRC5, MRC-5 noncancerous cells, 72 h, read-out: IC50 and 95%CI
Protocol: as §2

PBMC = test: Alamar blue cytotoxicity assay, noncancerous cells; type: cell-based, human; details: Homo sapiens, 72 h, read-out: IC50 and 95%CI
Protocol: as §2

BJ = test: Alamar blue cytotoxicity assay, noncancerous cells; type: cell-based, human; details: Homo sapiens, 72 h, read-out: IC50 and 95%CI
Protocol: as §2

[7] = RXC 2 mg/kg, DOX 0.8 mg/kg
Description: To evaluate toxicological features, all animals were weighed at the beginning and end of the experiment. Throughout the experiment, the animals were monitored for abnormalities. An Advia 60 hematology system was used to perform hematological analyses (Bayer, Leverkusen, Germany). The livers, kidneys, lungs, and hearts were removed, weighed, and examined for color change, gross lesion formation, and/or hemorrhaging before being fixed in 4% formaldehyde, dehydrated in a graded alcohol series, washed in xylene, and embedded in paraffin wax. The tissue was cut into 5 μm thick slices, stained with hematoxylin-eosin and/or periodic acid-Schiff (liver and kidney), and examined histologically under optical microscopy.

NB4 = test: Alamar blue cytotoxicity assay; type: cell-based, human; details: Homo sapiens, NB-4, 72 h, read-out: IC50 and 95%CI
Protocol: as §2

H1299 = test: Alamar blue cytotoxicity assay; type: cell-based, human; details: Homo sapiens, NCI-H1299, 72 h, read-out: IC50 and 95%CI
Protocol: as §2

SCC-25 = test: Alamar blue cytotoxicity assay; type: cell-based, human; details: Homo sapiens, 72 h, read-out: IC50 and 95%CI
Protocol: as §2

HSC-3 = test: Alamar blue cytotoxicity assay; type: cell-based, human; details: Homo sapiens, 72 h, read-out: IC50 and 95%CI
Protocol: as §2

KG-1a = test: Alamar blue cytotoxicity assay; type: cell-based, human; details: Homo sapiens, 72 h, read-out: IC50 and 95%CI
Protocol: as §2

MDA-MB-231 = test: Alamar blue cytotoxicity assay; type: cell-based, human; details: Homo sapiens, 72 h, read-out: IC50 and 95%CI
Protocol: as §2

SCC-9 = test: Alamar blue cytotoxicity assay; type: cell-based, human; details: Homo sapiens, 72 h, read-out: IC50 and 95%CI
Protocol: as §2

DU 145 = test: Alamar blue cytotoxicity assay; type: cell-based, human; details: Homo sapiens, 72 h, read-out: IC50 and 95%CI
Protocol: as §2

A549 = test: Alamar blue cytotoxicity assay; type: cell-based, human; details: Homo sapiens, 72 h, read-out: IC50 and 95%CI
Protocol: as §2

U-87 MG = test: Alamar blue cytotoxicity assay; type: cell-based, human; details: Homo sapiens, 72 h, read-out: IC50 and 95%CI
Protocol: as §2

PANC-1 = test: Alamar blue cytotoxicity assay; type: cell-based, human; details: Homo sapiens, 72 h, read-out: IC50 and 95%CI
Protocol: as §2

HL-60 = test: Alamar blue cytotoxicity assay; type: cell-based, human; details: Homo sapiens, 72 h, read-out: IC50 and 95%CI
Protocol: as §2

A-375 = test: Alamar blue cytotoxicity assay; type: cell-based, human; details: Homo sapiens, 72 h, read-out: IC50 and 95%CI
Protocol: as §2

HCT116 = test: Alamar blue cytotoxicity assay; type: cell-based, human; details: Homo sapiens, HCT-116, 72 h, read-out: IC50 and 95%CI
Protocol: as §2

SCC4 = test: Alamar blue cytotoxicity assay; type: cell-based, human; details: Homo sapiens, SCC-4, 72 h, read-out: IC50 and 95%CI
Protocol: as §2

HepG2 = test: Alamar blue cytotoxicity assay; type: cell-based, human; details: Homo sapiens, 72 h, read-out: IC50 and 95%CI
Protocol: as §2

JUKART = test: Alamar blue cytotoxicity assay; type: cell-based, human; details: Homo sapiens, 72 h, read-out: IC50 and 95%CI
Protocol: as §2

K-562 = test: Alamar blue cytotoxicity assay; type: cell-based, human; details: Homo sapiens, K562, 72 h, read-out: IC50 and 95%CI
Protocol: as §2

CAL 27 = test: Alamar blue cytotoxicity assay; type: cell-based, human; details: Homo sapiens, 72 h, read-out: IC50 and 95%CI
Protocol: as §2

THP-1 = test: Alamar blue cytotoxicity assay; type: cell-based, human; details: Homo sapiens, 72 h, read-out: IC50 and 95%CI
Protocol: as §2

4T1 = test: Alamar blue cytotoxicity assay; type: cell-based, mouse; details: Mus musculus, 72 h, read-out: IC50 and 95%CI
Protocol: as §2

B16-F10 = test: Alamar blue cytotoxicity assay; type: cell-based, mouse; details: Mus musculus, 72 h, read-out: IC50 and 95%CI
Protocol: as §2

Cn1cnc(N)c2ncnc1-2 [3-MA, 3-methyladenine]
effect of autophagy inhibitor on RXC-induced cell death (HCT116 cells [1]): enhanced RXC-induced cell death

O=c1[nH]cc(F)c(=O)[nH]1 [5-FU, 5-fluorouracil, reference compound]
IC50 (WT SV40 MEF): 10000 nM
IC50 (BAD KO SV40 MEF): 25800 nM

CCN(CC)CCCC(C)Nc1ccnc2cc(Cl)ccc12 (stereo not shown) [CQ, chloroquine]
effect of autophagy inhibitor on RXC-induced cell death (HCT116 cells [1]): enhanced RXC-induced cell death

COc1cccc2c1C(=O)c1c(O)c3c(c(O)c1C2=O)C[C@@](O)(C(=O)CO)C[C@@H]3O[C@H]1C[C@H](N)[C@H](O)[C@H](C)O1 [DOX, Doxorubicin, reference compound]
cell cycle effect (HCT116 cells [2]): G2/M arrest
reduced cell viability [3]: 71.0%
reduced cell viability [4]: 65.6%
reduced cell viability [5]: 64.3%
tumor mass inhibition (HCT116 cells [6]): 46.7%
IC50 (MRC-5): 1610 nM
IC50 (PBMC): 1280 nM
IC50 (BJ): 730 nM
hematological analysis ([7]; i.p. once a day for 2 weeks): Decreases in erythrocytes, hemoglobin, hematocrit, MCV and leukocytes
animals died during the treatment ([7]; i.p. once a day for 2 weeks, n = 15 per group): four
body weight ([7]; i.p. once a day for 2 weeks, p < 0.05): decrease in body weight
liver histology ([7]; mainly in treated animals): focal areas of hepatocyte coagulation necrosis
kidney histology ([7]; more evident than in control): focal areas of coagulation necrosis of the renal cortex tubules
IC50 (NB4): 110 nM
IC50 (H1299): 770 nM
IC50 (SCC-25): 1580 nM
IC50 (HSC-3): 1430 nM
IC50 (KG-1a): 400 nM
IC50 (MDA-MB-231): 550 nM
IC50 (SCC-9): 1210 nM
IC50 (DU 145): 220 nM
IC50 (A549): 2350 nM
IC50 (U-87 MG): 440 nM
IC50 (PANC-1): 1060 nM
IC50 (HL-60): 90 nM
IC50 (A-375): 160 nM
IC50 (HCT116): 3300 nM
IC50 (SCC4): 70 nM
IC50 (HepG2): 90 nM
IC50 (JUKART): 30 nM
IC50 (K-562): 1500 nM
IC50 (CAL 27): 180 nM
IC50 (THP-1): 120 nM
IC50 (4T1): 1700 nM
IC50 (B16-F10): 530 nM

[Cl-].[Li+] [lithium chloride]
effect of Wnt activator on RXC-induced cell death (HCT116 cells [1]; pretreated with 25 mM LiCl, YO-PRO-1/PI): ineffective in preventing RXC-induced cell death
